Test results taken from patent publication US11312723B2, “Pyranopyrazole and pyrazolopyridine immunomodulators for treatment of autoimmune diseases” (The Rockefeller University, priority 2017, dated 2022).

Columns and labels:
Human FXIIa = Human FXIIa (Homo sapiens (Human), UniProt P00748); assay: Factor XIIa (FXIIa) inhibitory activity, chromogenic substrate (Pefachrome XIIa) cleavage; type: biochemical; details: 10 min pre-incubation, Pefachrome XIIa 400 μM
Human alpha-thrombin = Human alpha-thrombin (Homo sapiens (Human), UniProt P00734); assay: Thrombin counterscreen for selectivity, fluorogenic substrate cleavage; type: biochemical; details: 10 min pre-incubation, Boc-Val-Pro-Arg-AMC 20 μM
Procedure: Counterscreens for Selectivity:
Thrombin. In a 96-well white opaque plate, 80 μl of assay buffer was added to each well. Test compounds were added, and serially diluted as above, to generate a concentration range of approximately 1-100 μM. Human alpha-thrombin (Enzyme Research Labs) was diluted in assay buffer to a final concentration of 12.5 nM. 80 μl of this enzyme solution was added to the assay wells. The enzyme/compound mixtures were incubated for 10 minutes at room temperature. Fluorogenic substrate (Boc-Val-Pro-Arg-7-amido-4-methylcoumarin; Sigma) was added to assay wells at a final concentration of 20 μM. The assay plate was spun for 1 minute at 1500 g and then read at 37° C. in a SpectraMax M2 plate reader (λex=380 nm and λem=460 nm). Activity was quantified as the rate of change in fluorescence, which corresponds to the rate of substrate cleavage. IC50 values were determined as the concentration of inhibitor that produced 50% of the rate of change of control wells without any inhibitor. For compounds with activity <1 μM, the assay was repeated with a lower concentration range, typically from 10-1000 nM.

Sequence of Human FXIIa (P00748 373-615): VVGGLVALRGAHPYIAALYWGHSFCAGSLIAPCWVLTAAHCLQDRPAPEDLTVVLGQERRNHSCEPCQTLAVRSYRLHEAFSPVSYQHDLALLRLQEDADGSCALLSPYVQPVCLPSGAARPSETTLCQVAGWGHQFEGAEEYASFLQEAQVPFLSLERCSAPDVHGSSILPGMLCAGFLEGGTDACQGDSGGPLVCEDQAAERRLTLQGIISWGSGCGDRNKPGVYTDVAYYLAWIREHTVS
Sequence of Human FXIIa (P00748 20-372 partner): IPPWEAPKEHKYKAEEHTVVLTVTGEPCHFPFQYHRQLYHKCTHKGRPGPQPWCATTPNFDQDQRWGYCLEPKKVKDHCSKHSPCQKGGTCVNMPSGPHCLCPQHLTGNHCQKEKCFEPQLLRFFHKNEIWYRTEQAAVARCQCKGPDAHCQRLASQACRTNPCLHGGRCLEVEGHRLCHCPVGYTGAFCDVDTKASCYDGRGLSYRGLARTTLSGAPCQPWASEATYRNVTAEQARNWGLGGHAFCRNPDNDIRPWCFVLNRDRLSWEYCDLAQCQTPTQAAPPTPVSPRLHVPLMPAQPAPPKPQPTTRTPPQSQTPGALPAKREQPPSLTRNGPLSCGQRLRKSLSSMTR

IC50 (Human FXIIa) | IC50 (Human alpha-thrombin) | SMILES
60 nM | 20000 nM | CS(=O)(=O)N1CCc2c(nn(C(=O)C3CCNc4ccc(F)cc43)c2N)C1 (single isomer, unassigned) [Example 16, (3-amino-6-(methylsulfonyl)-4,5,6,7-tetrahydropyrazolo[3,4-c]pyridin-2-yl)(6-fluoro-1,2,3,4-tetrahydroquinolin-4-yl)methanone]
30 nM | 12500 nM | CS(=O)(=O)N1CCc2c(nn(C(=O)C3CCNc4ccc(F)cc43)c2N)C1 (single isomer, unassigned) [Example 18, (S*)-(3-amino-6-(methylsulfonyl)-4,5,6,7-tetrahydropyrazolo[3,4-c]pyridin-2-yl)(6-fluoro-1,2,3,4-tetrahydroquinolin-4-yl)methanone]
10 nM | 9000 nM | Cc1cc(F)cc2c1NCCC2C(=O)n1nc2c(c1N)CCN(S(C)(=O)=O)C2 (single isomer, unassigned) [Example 53, (S*)-(3-amino-6-(methylsulfonyl)-4,5,6,7-tetrahydropyrazolo[3,4-c]pyridin-2-yl)(6-fluoro-8-methyl-1,2,3,4-tetrahydroquinolin-4-yl)methanone]
30 nM | > 60000 nM | CS(=O)(=O)N1CCc2c(nn(C(=O)C3CCNc4c(Cl)cccc43)c2N)C1 (single isomer, unassigned) [Example 60, (S*)-(3-amino-6-(methylsulfonyl)-4,5,6,7-tetrahydropyrazolo[3,4-c]pyridin-2-yl)(8-chloro-1,2,3,4-tetrahydroquinolin-4-yl)methanone]
140 nM | 35000 nM | COc1cccc2c1NCCC2C(=O)n1nc2c(c1N)CCN(S(C)(=O)=O)C2 (single isomer, unassigned) [Example 63, (S*)-(3-amino-6-(methylsulfonyl)-4,5,6,7-tetrahydropyrazolo[3,4-c]pyridin-2-yl)(8-methoxy-1,2,3,4-tetrahydroquinolin-4-yl)methanone]
10 nM | 40000 nM | CCc1cc(C)c2c(c1)C(C(=O)n1nc3c(c1N)CCN(S(C)(=O)=O)C3)CCN2 (single isomer, unassigned) [Example 69, (3-amino-6-(methylsulfonyl)-4,5,6,7-tetrahydropyrazolo[3,4-c]pyridin-2-yl)((S*)-6-ethyl-8-methyl-1,2,3,4-tetrahydroquinolin-4-yl)methanone]
50 nM | > 100000 nM | Cc1cc(F)cc2c1NCCC2C(=O)n1nc2c(c1N)CCOC2 (single isomer, unassigned) [Example 76, (S*)-(3-amino-4,5-dihydropyrano[3,4-c]pyrazol-2(7H)-yl)(6-fluoro-8-methyl-1,2,3,4-tetrahydroquinolin-4-yl)methanone]
30 nM | 1500 nM | CS(=O)(=O)N1CCc2c(nn(C(=O)[C@H]3CCCc4[nH]c(Cl)cc43)c2N)C1 (single isomer, unassigned) [Example 131, (S*)-(3-amino-6-(methylsulfonyl)-4,5,6,7-tetrahydro-pyrazolo[3,4-c]pyridin-2-yl)(2-chloro-4,5,6,7-tetrahydro-1H-indol-4-yl)methanone]
35000 nM | – | Cc1cccc2c1NCCC2C(=O)n1nc(N)c2c1CN(S(=O)(=O)C1COC1)CC2 (stereo not shown) [Example 187, (3-amino-6-(oxetan-3-ylsulfonyl)-4,5,6,7-tetrahydro-pyrazolo[3,4-c]pyridin-1-yl)(8-methyl-1,2,3,4-tetrahydro-quinolin-4-yl)methanone]
40000 nM | – | Cc1cccc2c1NCCC2C(=O)n1nc(N)c2c1CCOC2 (stereo not shown) [Example 189, (3-amino-6,7-dihydropyrano[4,3-c]pyrazol-1(4H)-yl)(8-methyl-1,2,3,4-tetrahydro-quinolin-4-yl)methanone]
> 100000 nM | – | Cc1cccc2c1NCCC2C(=O)n1nc(N)c2c1COCC2 (stereo not shown) [Example 200, (3-amino-4,5-dihydropyrano[3,4-c]pyrazol-1(7H)-yl)(8-methyl-1,2,3,4-tetrahydro-quinolin-4-yl)methanone]
